Measurements published in patent US9670210B2, “Cyclopropylamines as LSD1 inhibitors” (Incyte Corporation, priority 2014, dated 2017).

These compounds were tested against LSD-1 enzyme (Homo sapiens (Human), UniProt O60341).
Description: LSD1 Histone Demethylase Biochemical Assay
LANCE LSD1/KDM1A demethylase assay-10 μL of 1 nM LSD-1 enzyme (ENZO BML-SE544-0050) in the assay buffer (50 mM Tris, pH 7.5, 0.01% Tween-20, 25 mM NaCl, 5 mM DTT) were preincubated for 1 hour at 25° C. with 0.8 μL compound/DMSO dotted in black 384 well polystyrene plates. […] After stopping the reactions plates were incubated for 30 minutes and read on a PHERAstar FS plate reader (BMG Labtech).
In the case of `Fc1ccc(CN2CC(CN[C@@H]3C[C@H]3c3ccccc3)C2)cc1` (relative stereo) [Example 2, N-{[1-(4-Fluorobenzyl)azetidin-3-yl]methyl}-trans-2-phenylcyclopropanamine], the IC50 is reported as < 100 nM. In the case of `Fc1ccc(CN2CCC(N[C@@H]3C[C@H]3c3ccccc3)CC2)cc1` (relative stereo) [Example 5, 1-(4-Fluorobenzyl)-N-(trans-2-phenylcyclopropyl)piperidin-4-amine], the IC50 is reported as < 100 nM. With `N#Cc1ccc(CN2CC(CN[C@@H]3C[C@H]3c3ccccc3)C2)cc1` (relative stereo) [Example 6, 4-[(3-{[(trans-2-Phenylcyclopropyl)amino]methyl}azetidin-1-yl)methyl]benzonitrile] the IC50 was < 100 nM. For `N#Cc1cccc(CN2CC(CN[C@@H]3C[C@H]3c3ccccc3)C2)c1` (relative stereo) [Example 7, 3-[(3-{[(trans-2-Phenylcyclopropyl)amino]methyl}azetidin-1-yl)methyl]benzonitrile], the IC50 was < 100 nM. With `N#CCC1(CN[C@@H]2C[C@H]2c2ccccc2)CCN(C(=O)c2cccc(F)c2)CC1` (relative stereo) [Example 8, (1-(3-Fluorobenzoyl)-4-{[(trans-2-phenylcyclopropyl)amino]methyl}piperidin-4-yl)acetonitrile] the IC50 was < 100 nM. With `N#CCC1(CN[C@@H]2C[C@H]2c2ccccc2)CCN(Cc2cccc(F)c2)CC1` (relative stereo) [Example 9, (1-(3-Fluorobenzyl)-4-{[(trans-2-phenylcyclopropyl)amino]methyl}piperidin-4-yl)acetonitrile] the IC50 was < 100 nM. In the case of `N#CC1CCN(C(=O)N2CC(CN[C@@H]3C[C@H]3c3ccccc3)C2)CC1` (relative stereo) [Example 12, 1-[(3-{[(trans-2-Phenylcyclopropyl)amino]methyl}azetidin-1-yl)carbonyl]piperidine-4-carbonitrile], the IC50 is reported as < 100 nM. For `O=C(N1CCC(C(F)(F)F)CC1)N1CC(CN[C@@H]2C[C@H]2c2ccccc2)C1` (relative stereo) [Example 13, Trans-2-phenyl-N-[(1-{[4-(trifluoromethyl)piperidin-1-yl]carbonyl}azetidin-3-yl)methyl]cyclopropanamine], the IC50 was < 100 nM. `N#CC1(c2ccccc2)CCN(C(=O)N2CC(CN[C@@H]3C[C@H]3c3ccccc3)C2)CC1` (relative stereo) [Example 16, 4-Phenyl-1-[(3-{[(trans-2-phenylcyclopropyl)amino]methyl}azetidin-1-yl)carbonyl]piperidine-4-carbonitrile] was tested, and the IC50 was < 100 nM. For `O=C(N1CCC(O)(c2ccccc2)CC1)N1CC(CN[C@@H]2C[C@H]2c2ccccc2)C1` (relative stereo) [Example 17, 4-Phenyl-1-[(3-{[(trans-2-phenylcyclopropyl)amino]methyl}azetidin-1-yl)carbonyl]piperidin-4-ol], the IC50 was < 100 nM. For `O=C(N1CCC2(CC1)CNc1ccc(F)cc12)N1CC(CN[C@@H]2C[C@H]2c2ccccc2)C1` (relative stereo) [Example 18, N-({1-[(5-Fluoro-1,2-dihydro-spiro[indole-3,4′-piperidin]-1′-yl)carbonyl]azetidin-3-yl}methyl)-trans-2-phenylcyclopropanamine], the IC50 was < 100 nM. For `O=C(Nc1ccccc1F)N1CC(CN[C@@H]2C[C@H]2c2ccccc2)C1` (relative stereo) [Example 19, N-(2-Fluorophenyl)-3-{[(trans-2-phenylcyclopropyl)amino]methyl}azetidine-1-carboxamide], the IC50 was < 100 nM. `O=C(Nc1cccc(F)c1)N1CC(CN[C@@H]2C[C@H]2c2ccccc2)C1` (relative stereo) [Example 20, N-(3-Fluorophenyl)-3-{[(trans-2-phenylcyclopropyl)amino]methyl}azetidine-1-carboxamide] was tested, and the IC50 was < 100 nM. In the case of `O=C(Nc1ccc(F)cc1)N1CC(CN[C@@H]2C[C@H]2c2ccccc2)C1` (relative stereo) [Example 21, N-(4-Fluorophenyl)-3-{[(trans-2-phenylcyclopropyl)amino]methyl}azetidine-1-carboxamide], the IC50 is reported as < 100 nM. With `COc1ccc(NC(=O)N2CC(CN[C@@H]3C[C@H]3c3ccccc3)C2)cc1` (relative stereo) [Example 22, N-(4-Methoxyphenyl)-3-{[(trans-2-phenylcyclopropyl)amino]methyl}azetidine-1-carboxamide] the IC50 was < 100 nM. `COc1cccc(NC(=O)N2CC(CN[C@@H]3C[C@H]3c3ccccc3)C2)c1` (relative stereo) [Example 23, N-(3-Methoxyphenyl)-3-{[(trans-2-phenylcyclopropyl)amino]methyl}azetidine-1-carboxamide] was tested, and the IC50 was < 100 nM. In the case of `COc1ccccc1NC(=O)N1CC(CN[C@@H]2C[C@H]2c2ccccc2)C1` (relative stereo) [Example 24, N-(2-Methoxyphenyl)-3-{[(trans-2-phenylcyclopropyl)amino]methyl}azetidine-1-carboxamide], the IC50 is reported as < 100 nM. `N#Cc1ccc(C(=O)N2CC(CN[C@@H]3C[C@H]3c3ccccc3)C2)cc1` (relative stereo) [Example 25, 4-[(3-{[(trans-2-Phenylcyclopropyl)amino]methyl}azetidin-1-yl)carbonyl]benzonitrile] was tested, and the IC50 was < 100 nM. For `N#Cc1cccc(C(=O)N2CC(CN[C@@H]3C[C@H]3c3ccccc3)C2)c1` (relative stereo) [Example 26, 3-[(3-{[(trans-2-Phenylcyclopropyl)amino]methyl}azetidin-1-yl)carbonyl]benzonitrile], the IC50 was < 100 nM. `COc1cccc(C(=O)N2CC(CN[C@@H]3C[C@H]3c3ccccc3)C2)c1` (relative stereo) [Example 27, N-{[1-(3-Methoxybenzoyl)azetidin-3-yl]methyl}-trans-2-phenylcyclopropanamine] was tested, and the IC50 was < 100 nM. In the case of `O=C(c1ccc(F)cc1)N1CC(CN[C@@H]2C[C@H]2c2ccccc2)C1` (relative stereo) [Example 28, N-{[1-(4-Fluorobenzoyl)azetidin-3-yl]methyl}-trans-2-phenylcyclopropanamine], the IC50 is reported as < 100 nM. `O=C(c1cccc(F)c1)N1CC(CN[C@@H]2C[C@H]2c2ccccc2)C1` (relative stereo) [Example 29, N-{[1-(3-Fluorobenzoyl)azetidin-3-yl]methyl}-trans-2-phenylcyclopropanamine] was tested, and the IC50 was < 100 nM. In the case of `O=S(=O)(c1ccc(OC(F)(F)F)cc1)N1CC(CN[C@@H]2C[C@H]2c2ccccc2)C1` (relative stereo) [Example 30, Trans-2-phenyl-N-[(1-{[4-(trifluoromethoxy)phenyl]sulfonyl}azetidin-3-yl)methyl]cyclopropanamine], the IC50 is reported as < 100 nM. `O=C(N1CC(CNC2CC2c2ccccc2)C1)N1CCC[C@@]2(CCN(C3CCC(O)CC3)C2=O)C1` (stereo in doubt) [Example 10, (5R)-2-(cis-4-Hydroxycyclohexyl)-7-[(3-{[(trans-2-phenylcyclopropyl)amino]methyl}azetidin-1-yl)carbonyl]-2,7-diazaspiro[4.5]decan-1-one] was tested, and the IC50 was < 100 nM. For `O=C(N1CC(CNC2CC2c2ccccc2)C1)N1CCC[C@]2(CCN(C3CCC(O)CC3)C2=O)C1` (stereo partly drawn) [Example 11, (5S)-2-(cis-4-Hydroxycyclohexyl)-7-[(3-{[(trans-2-phenylcyclopropyl)amino]methyl}azetidin-1-yl)carbonyl]-2,7-diazaspiro[4.5]decan-1-one], the IC50 was < 100 nM. For `O=C(N1CC(CNC2CC2c2ccccc2)C1)N1CCCC(Oc2ccccc2)C1` (stereo not drawn) [Example 14, N-({1-[(3-Phenoxypiperidin-1-yl)carbonyl]azetidin-3-yl}methyl)-trans-2-phenylcyclopropanamine], the IC50 was < 100 nM. In the case of `COC1CCCN(C(=O)N2CC(CNC3CC3c3ccccc3)C2)C1` (stereo not drawn) [Example 15, N-({1-[(3-Methoxypiperidin-1-yl)carbonyl]azetidin-3-yl}methyl)-trans-2-phenylcyclopropanamine], the IC50 is reported as < 100 nM. In the case of `O=C(O)C1(CN2CCC(CN[C@@H]3C[C@H]3c3ccccc3)(Cc3ccc(F)cc3)CC2)CC1` [Example 31, 1-{[4-(4-fluorobenzyl)-4-({[(1R,2S)-2-phenylcyclopropyl]amino}methyl)piperidin-1-yl]methyl}cyclopropanecarboxylic acid], the IC50 is reported as < 100 nM. With `O=C(O)C1(CN2CCC(CN[C@@H]3C[C@H]3c3ccccc3)(Cc3ccc(F)cc3)CC2)CCC1` [Example 32, 1-{[4-(4-fluorobenzyl)-4-({[(1R,2S)-2-phenylcyclopropyl]amino}methyl)piperidin-1-yl]methyl}cyclobutanecarboxylic acid] the IC50 was < 100 nM. In the case of `N[C@H]1CC[C@H](C(=O)N2CCC(CN[C@@H]3C[C@H]3c3ccccc3)(Cc3ccc(F)cc3)CC2)CC1` [Example 33, trans-4-{[4-(4-fluorobenzyl)-4-({[(1R,2S)-2-phenylcyclopropyl]amino}methyl)piperidin-1-yl]carbonyl}cyclohexanamine], the IC50 is reported as < 100 nM. `NC1(C(=O)N2CCC(CN[C@@H]3C[C@H]3c3ccccc3)(Cc3ccc(F)cc3)CC2)CCC1` [Example 34, 1-{[4-(4-fluorobenzyl)-4-({[(1R,2S)-2-phenylcyclopropyl]amino}methyl)piperidin-1-yl]carbonyl}cyclobutanamine] was tested, and the IC50 was < 100 nM. With `COCC1(CN[C@@H]2C[C@H]2c2ccccc2)CCN(CC2(C(=O)O)CC2)CC1` [Example 35, 1-{[4-(methoxymethyl)-4-({[(1R,2S)-2-phenylcyclopropyl]amino}methyl)piperidin-1-yl]methyl}cyclopropanecarboxylic acid] the IC50 was < 100 nM. In the case of `COCC1(CN[C@@H]2C[C@H]2c2ccccc2)CCN(CC2(C(=O)O)CCCC2)CC1` [Example 37, 1-{[4-(methoxymethyl)-4-({[(1R,2S)-2-phenylcyclopropyl]amino}methyl)piperidin-1-yl]methyl}cyclopentanecarboxylic acid], the IC50 is reported as < 100 nM. For `COCC1(CN[C@@H]2C[C@H]2c2ccccc2)CCN(C(=O)[C@@H]2CCCN2C)CC1` [Example 38, (1R,2S)—N-[(4-(methoxymethyl)-1-{[(2S)-1-methylpyrrolidin-2-yl]carbonyl}piperidin-4-yl)methyl]-2-phenylcyclopropanamine], the IC50 was < 100 nM. `COCC1(CN[C@@H]2C[C@H]2c2ccccc2)CCN(C(=O)c2cn(C)cn2)CC1` [Example 39, (1R,2S)—N-({4-(methoxymethyl)-1-[(1-methyl-1H-imidazol-4-yl)carbonyl]piperidin-4-yl}methyl)-2-phenylcyclopropanamine] was tested, and the IC50 was < 100 nM.
